# Earlier results in publication PMC12281572.
# Where “and” joins values, the source holds several entries; their conditions need not be identical. Equal values may be shown once.
# Assay: FTIR, 4-fluorophenol as donor (the pK_BHX database, per the paper)
# Details: CCl4; 25 C
row,Structure (SMILES),"pK_BHX (log10 Kf of the 1:1 H-bond complex with 4-fluorophenol, by FTIR)"
1,O=C1CCCCCCCCCCC1,1.23 log units
2,CN(C)C=NC1CCCCC1,2.59 log units
3,CSC1CCCCC1,0.24 log units
4,O=S(c1ccccc1)c1ccccc1,2.04 log units
5,c1cnoc1,0.81 log units
6,c1ccc2c(c1)CCCN2,0.7 log units
7,COc1ccccc1,-0.07 log units
8,C1C2CC3CC1CC(C2)C31OOC12C1CC3CC(C1)CC2C3 (stereo not drawn),0.63 log units
9,C=CCSC,0.08 log units
10,CC(=O)c1cccnc1,1.39 log units and 0.9 log units
11,CN(C)C(=S)N(C)C,1.35 log units
12,CC(C)(C)[N+](=O)[O-],0.42 log units
13,Nc1ncccn1,1.55 log units
14,Fc1cccc(F)n1,0.14 log units
15,c1cnccn1,0.92 log units
16,COc1ccc(Cl)cc1,-0.25 log units
17,[O-][n+]1ccc(Cl)cc1,2.44 log units
18,ClCCCCCl,-0.47 log units
19,C#CCN(C)C,1.6 log units
20,c1cscn1,1.37 log units
21,CN(C)C=NCC(C)(C)C,2.26 log units
22,C1C2CC3CC1CC(C2)C3C1OC1C1C2CC3CC(C2)CC1C3 (stereo not drawn),1.44 log units
23,CCOC(C)(C)C,1.08 log units
24,N#Cc1ccccc1Br,0.71 log units
25,CCCCCCCCCCCCCCCCN,2.26 log units
26,BrC1CC1,-0.47 log units

# The remaining lines, values ahead:
row,"pK_BHX (log10 Kf of the 1:1 H-bond complex with 4-fluorophenol, by FTIR)",Structure (SMILES)
1,1.29 log units,c1ccc(N=C(Nc2ccccc2)c2ccccc2)cc1
2,1.37 log units,CN(C)C=Nc1ccccc1Br
3,1.76 log units,CC(C)c1ccccn1
4,1.27 log units,NCc1cc(Cl)cc(Cl)c1
5,1.94 log units,CCc1ccccn1
6,1.36 log units,CC(=Nc1ccc(Br)cc1)N(C)c1ccccc1
7,1.21 log units,CSc1ccc(C(C)=O)cc1
8,0.3 log units,S=C1SCCS1
9,1.88 log units,CCCCc1ccccn1
10,1.9 log units,CN(C)C=Nc1ccccc1
11,1.23 log units,CN(C)C=NC(=S)c1ccccc1
12,3.46 log units,Cc1cnc2c(ccc3c(C)c(C)cnc32)c1C
13,1.29 log units,CCN(CC)C(=S)N(C)C
14,2.16 log units,CCN(CC(=O)N(CC)c1ccccc1)c1ccccc1
15,2.21 log units,Cc1ccc(S(=O)c2ccc(C)cc2)cc1
16,2.22 log units,Cn1cncc1Br
17,1.43 log units,NCc1cccc(C(F)(F)F)c1
18,2.32 log units,CN(C)C=Nc1ccc(N(C)C)cc1
19,2.92 log units,Cc1ccc[n+]([O-])c1
